Assay results from patent US10919941B2, “Functional lipid constructs” (KODE BIOTECH LIMITED, priority 2007, dated 2021).
No end group written: not given here.

Tests used:
[1] = tested on: natural Mi III antibody reactive human serums; assay: Positive serum reactivity of modified RBCs in the field; assay type: cell-based; parameters: key: 0 or ‘−’ no agglutination; 0 or ‘−’ no agglutination; 1+ or 3=very weak agglutination; 1+ or 3=very weak agglutination; 2+ or 5=weak agglutination; 2+ or 5=weak agglutination; 3+ or 8=moderate strong agglutination; 3+ or 8=moderate strong agglutination; 4+ or 10/12=strong agglutination; 4+ or 10/12=strong agglutination; 4+ or 10/12=strong agglutination; settings: 22 at 50, 17 and 24 at 200 μg/ml; 3 h RT then 18 h 4° C.
Method: (§1) The suspensions are either: • 1. incubated for 2 hours at 37° C. before being washed and suspended in a cell medium for serological analysis at a concentration of 0.8 to 3% (Method 1); or • 2. incubated for 3 to 4 hours at room temperature (circa 25° C.) followed by 18 hours at 4° C. before being washed and suspended in a cell medium for serological analysis at a concentration of 0.8 to 3% (Method 2).
(§2) Serological reactions are graded or scored by either of two established systems (0 or ‘−’ no agglutination, 1+ or 3=very weak agglutination, 2+ or 5=weak agglutination, 3+ or 8=moderate strong agglutination, 4+ or 10/12=strong agglutination)

[2] = tested on: TAP1 serum (Taiwan Miltenberger antibody positive sample); assay: Anti-MUT serum (TAP1) reactivity of modified RBCs (saline and AHG); assay type: cell-based, human; parameters: key: 0 or ‘−’ no agglutination; 0 or ‘−’ no agglutination; 1+ or 3=very weak agglutination; 1+ or 3=very weak agglutination; 2+ or 5=weak agglutination; 2+ or 5=weak agglutination; 3+ or 8=moderate strong agglutination; 3+ or 8=moderate strong agglutination; 4+ or 10/12=strong agglutination; 4+ or 10/12=strong agglutination; 4+ or 10/12=strong agglutination; settings: construct 50 μg/ml
Method: as §1, §2

[3] = tested on: Miltenberger Antibody Positive Panel; assay: Reactivity of modified RBCs against the Miltenberger Antibody Positive Panel; assay type: cell-based, human; parameters: key to score vs panel 15 TAP2 / score vs panel 4 T7202 / score vs panel 8 T5896 / score vs panel 2 T217 / score vs panel 3 T165 / score vs panel 14 TAP1 / score vs panel 10 Mia / score vs panel 11 Mur / score vs panel 12 Gam / score vs panel 6 T6025 / score vs panel 7 T8445 / score vs panel 9 MIII / score vs panel 13 BoxH / reactivity with Panel Serum #7 (T8445) / agglutination score, Panel Serum #7 (T8445): 0 or ‘−’ no agglutination; 0 or ‘−’ no agglutination; 1+ or 3=very weak agglutination; 1+ or 3=very weak agglutination; 2+ or 5=weak agglutination; 2+ or 5=weak agglutination; 3+ or 8=moderate strong agglutination; 3+ or 8=moderate strong agglutination; 4+ or 10/12=strong agglutination; 4+ or 10/12=strong agglutination; 4+ or 10/12=strong agglutination
antibody negative serums = assay: False positive reactions of modified RBCs with antibody negative serums/plasma; assay type: cell-based, human; parameters: key to Reaction score BioVue AHG, PAC samples 1-46, 49, 50, 52, 53 / Reaction score BioVue AHG, PAC sample 47 / Reaction score BioVue AHG, PAC sample 48 / Reaction score BioVue AHG, PAC sample 51 / agglutination score, T series serum 2 / agglutination score, T series serum 42 / agglutination score, T series serum 63 / agglutination score, T series serum 62 / agglutination score, T series serum 7 / agglutination score, T series serum 20 / agglutination score, T series serum 48 / agglutination score, T series serum 22 / agglutination score, T series serum 39 / agglutination score, T series serum 23 / agglutination score, T series serum 30 / agglutination score, T series serum 4 / agglutination score, T series serum 31 / agglutination score, T series serum 44 / agglutination score, T series serum 61 / agglutination score, T series serum 18 / agglutination score, T series serum 21 / agglutination score, T series serum 28 / agglutination score, T series serum 55 / agglutination score, false positive serum T18 / agglutination score, false positive serum T21 / agglutination score, false positive serum T28 / agglutination score, false positive serum T55 / agglutination score, false positive serum T78 / agglutination score, false positive serum T92: 0 or ‘−’ no agglutination; 0 or ‘−’ no agglutination; 1+ or 3=very weak agglutination; 1+ or 3=very weak agglutination; 2+ or 5=weak agglutination; 2+ or 5=weak agglutination; 3+ or 8=moderate strong agglutination; 3+ or 8=moderate strong agglutination; 4+ or 10/12=strong agglutination; 4+ or 10/12=strong agglutination; 4+ or 10/12=strong agglutination
[4] = cells modified at 50 μg/ml, 2 hour 37° C., BioVue AHG cards
[5] = larger series = 102, cells modified at 50 μg/ml, 2 hour 37° C., BioVue AHG cards

## M24: DOPE peptide-lipid construct: Hil peptide EETGETGQLV, leader c, spacer CMG(2) (EETGETGQLVC; also: DOPE peptide-lipid construct via leader Cys, spacer CMG(2))
[1]
  score vs Mi III reactive serum 912485657-9: 0
  score vs Mi III reactive serum 914146821-8: 0
  score vs Mi III reactive serum 922390844-5: 0
  score vs Mi III reactive serum 926190919-0: 0
  score vs Mi III reactive serum 926555294-1: 0
  score vs Mi III reactive serum 927175131-4: 0
  score vs Mi III reactive serum 927299700-1: 0
  score vs Mi III reactive serum 927516053-2: 0
  score vs Mi III reactive serum 927619701-8: 0
  score vs Mi III reactive serum 932360876-4: 0
  score vs Mi III reactive serum 932467774-5: 0
  score vs Mi III reactive serum 932809044-1: 0
  score vs Mi III reactive serum 942223755-1: 0
  score vs Mi III reactive serum 942404708-4 (row interpreted Mur): 0
  score vs Mi III reactive serum 942404708-4 (row interpreted other): 0
  score vs Mi III reactive serum 942421413-0: 0
  score vs Mi III reactive serum 942423002-4: 3
  score vs Mi III reactive serum 942433813-3: 0
  score vs Mi III reactive serum 942433855-3: 8
  score vs Mi III reactive serum 942442720-2: 0
  score vs Mi III reactive serum 942448627-8: 5
  score vs Mi III reactive serum 942753165-4: 8
  score vs Mi III reactive serum 942762589-1: 3
  score vs Mi III reactive serum 9322338631: 0
  score vs Mi III reactive serum 9325490091: 0
  score vs Mi III reactive serum 9327986660: 0
  score vs Mi III reactive serum 9328118428: 5
  score vs Mi III reactive serum 9328154853: 3
  score vs Mi III reactive serum 9328791834: 0
  score vs Mi III reactive serum 9424248012: 0
  score vs Mi III reactive serum 9424292604: 5
  score vs Mi III reactive serum 9424396133: 0
  score vs Mi III reactive serum 9425256505: 8
  score vs Mi III reactive serum 9427455417: 5
  score vs Mi III reactive serum 9427613497: 0
  score vs Mi III reactive serum 9427615156: 0
  score vs Mi III reactive serum S-3: 5
[2]
  TAP 1 Serum, AHG score: 0
  TAP 1 Serum, Saline score: 0

## M17: DOPE peptide-lipid construct: Mur peptide TYPAHTANEV, leader c, spacer CMG(2) (TYPAHTANEVC; also: DOPE peptide-lipid construct via leader Cys, spacer CMG(2))
[3]; Table 9, construct 100 μg/ml
  score vs panel 2 T217: 0
  score vs panel 3 T165: 10
  score vs panel 4 T7202: 8
  score vs panel 6 T6025: 10
  score vs panel 7 T8445: 10
  score vs panel 8 T5896: 0
  score vs panel 9 MIII: 0
  score vs panel 10 Mia: 0
  score vs panel 11 Mur: 0
  score vs panel 12 Gam: 0
  score vs panel 15 TAP2: 0
[3]; [4]
  agglutination score, Panel Serum #7 (T8445): 10
[3]; construct 50 μg/ml (2 hours, 37° C.)
  reactivity with Panel Serum #7 (T8445): 10
[1]
  score vs Mi III reactive serum 912485657-9: 3
  score vs Mi III reactive serum 914146821-8: 10
  score vs Mi III reactive serum 922390844-5: 12
  score vs Mi III reactive serum 926190919-0: 3
  score vs Mi III reactive serum 926555294-1: 0
  score vs Mi III reactive serum 927175131-4: 0
  score vs Mi III reactive serum 927299700-1: 0
  score vs Mi III reactive serum 927516053-2: 0
  score vs Mi III reactive serum 927619701-8: 3
  score vs Mi III reactive serum 932360876-4: 0
  score vs Mi III reactive serum 932467774-5: 0
  score vs Mi III reactive serum 932809044-1: 8
  score vs Mi III reactive serum 942223755-1: 5
  score vs Mi III reactive serum 942404708-4 (row interpreted Mur): 5
  score vs Mi III reactive serum 942404708-4 (row interpreted other): 0
  score vs Mi III reactive serum 942421413-0: 5
  score vs Mi III reactive serum 942423002-4: 0
  score vs Mi III reactive serum 942433813-3: 8
  score vs Mi III reactive serum 942433855-3: 8
  score vs Mi III reactive serum 942442720-2: 5
  score vs Mi III reactive serum 942448627-8: 0
  score vs Mi III reactive serum 942753165-4: 8
  score vs Mi III reactive serum 942762589-1: 0
  score vs Mi III reactive serum 9322338631: 10
  score vs Mi III reactive serum 9325490091: 5
  score vs Mi III reactive serum 9327986660: 3
  score vs Mi III reactive serum 9328118428: 10
  score vs Mi III reactive serum 9328154853: 10
  score vs Mi III reactive serum 9328791834: 3
  score vs Mi III reactive serum 9424248012: 0
  score vs Mi III reactive serum 9424292604: 8
  score vs Mi III reactive serum 9424396133: 0
  score vs Mi III reactive serum 9425256505: 8
  score vs Mi III reactive serum 9427455417: 5
  score vs Mi III reactive serum 9427613497: 0
  score vs Mi III reactive serum 9427615156: 0
  score vs Mi III reactive serum S-3: 3
[2]
  TAP 1 Serum, AHG score: 0
  TAP 1 Serum, Saline score: 0
Antibody negative serums; T series reactives (n = 58), BioVue AHG cards
  % positive: 33%
Antibody negative serums; [4]
  agglutination score, T series serum 2: 10
  agglutination score, T series serum 4: 8
  agglutination score, T series serum 7: 8
  agglutination score, T series serum 18: 12
  agglutination score, T series serum 20: 8
  agglutination score, T series serum 21: 12
  agglutination score, T series serum 22: 8
  agglutination score, T series serum 23: 3
  agglutination score, T series serum 28: 12
  agglutination score, T series serum 30: 3
  agglutination score, T series serum 31: 8
  agglutination score, T series serum 39: 5
  agglutination score, T series serum 42: 10
  agglutination score, T series serum 44: 10
  agglutination score, T series serum 48: 8
  agglutination score, T series serum 55: 12
  agglutination score, T series serum 61: 10
  agglutination score, T series serum 62: 8
  agglutination score, T series serum 63: 10
Antibody negative serums; [5]
  agglutination score, false positive serum T18: 12
  agglutination score, false positive serum T21: 12
  agglutination score, false positive serum T28: 12
  agglutination score, false positive serum T55: 12
  agglutination score, false positive serum T78: 12
  agglutination score, false positive serum T92: 12
Antibody negative serums; n = 102 negative serum samples
  number of negative serums with score 0: 65
  number of negative serums with score 3: 3
  number of negative serums with score 8-5: 18
  number of negative serums with score 12-10: 17
  share of negative serums with score 0: 64%
  share of negative serums with score 3: 3%
  share of negative serums with score 8-5: 18%
  share of negative serums with score 12-10: 17%
